Test results reported in patent US8048923B2, “Treatment of polyglutamine disorders caused by expanding genomic CAG nucleotides” (Odessa Pharma, priority 2003, dated 2011).

Key:
Huntington's disease = details: patients, cited from earlier work; for slowing of progression of Huntington's disease: large-scale clinical trial
glutamine synthetase = glutamine synthetase (Homo sapiens, UniProt P15104); details: cited from earlier work
[1] = in vivo; cited from earlier work
[2] = system: Differentiated inducible PC12 cells; experiment: L-glutamine add-back to MSO treated PC12 culture; format: cell-based
Description: The cells are grown overnight and aggregation is calculated. Inhibition of aggregation proceeds in a concentration-dependent manner.
In contrast, the addition of L-GLN has no effect on the growth of cells not treated with MSO or cultures treated with subinhibitory concentrations of MSO.

[3] = system: Drosophila transgenic polyQ line P{UAS-Q48myc}^42; details: Q48 flies fed MSO; Q48 flies without MSO need an average of 26 sec
Description: Flies are mated at 25° C. as described in Nature 413, 739-743. Eggs are collected and transferred into vials at 29° C. containing standard food supplemented with MSO, and adults are transferred to vials containing fresh food every 3 days after eclosion.
A second phenotype associated with expanded polyQ expression is a decrease in motor function. This is assayed by using an “escape” or climbing assay as described in Exp. Gerontol.

[4] = system: Differentiated inducible PC12 cells; details: MSO 1-100 μM, low glutamine medium, overnight, fluorescent microscopy counts
Description: Cells (1×10^6) are plated in 10-cm plates using tissue culture medium low in glutamine to ensure that most of the glutamine in the cells is the product of de novo synthesis by cellular glutamine synthetase. […] MSO is added directly to the cell-culture media at final concentrations of 1-100 μM. The cells are grown overnight and aggregation is calculated. […] Visual counts of aggregates are performed by using fluorescent microscopy.

[5] = system: brain levels of glutamine; details: MSO administered to normal animals; reduced from 5.6; cited from earlier work
[6] = system: mice with the gene mutation for Huntington's disease (HD); details: cited from earlier work

Sequence of glutamine synthetase (P15104 2-373 limits assumed, species assumed): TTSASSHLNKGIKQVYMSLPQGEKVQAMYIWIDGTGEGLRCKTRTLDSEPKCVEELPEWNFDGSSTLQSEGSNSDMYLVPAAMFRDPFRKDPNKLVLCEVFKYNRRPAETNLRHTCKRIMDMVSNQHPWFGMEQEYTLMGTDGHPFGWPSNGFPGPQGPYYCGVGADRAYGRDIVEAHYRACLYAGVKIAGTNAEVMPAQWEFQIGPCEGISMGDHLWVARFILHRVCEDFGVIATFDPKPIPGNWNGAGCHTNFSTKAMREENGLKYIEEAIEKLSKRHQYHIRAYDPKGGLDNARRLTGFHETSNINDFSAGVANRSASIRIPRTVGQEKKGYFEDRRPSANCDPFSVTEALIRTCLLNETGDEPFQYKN

COC1=C(OC)C(=O)C(C/C=C(\C)CC/C=C(\C)CC/C=C(\C)CC/C=C(\C)CC/C=C(\C)CC/C=C(\C)CC/C=C(\C)CC/C=C(\C)CC/C=C(\C)CCC=C(C)C)=C(C)C1=O [Coenzyme Q10]
slowing of progression of Huntington's disease (Huntington's disease): neither drug resulted in any significant improvement
disease progression after one year of treatment (Huntington's disease; one year of treatment, overall results inconclusive): seemed to progress more slowly

CP(=O)(O)CCC(N)C(=O)O [Glufosinate, ammonium-D-L-homoalanine-4-yl(methyl)-phosphinate]
type of inhibition of glutamine synthetase (glutamine synthetase): catalytic inhibitor
crossing of the blood brain barrier [1]: does not cross the blood brain barrier

NC(=O)CC[C@H](N)C(=O)O [L-glutamine]
toxic protein synthesis and aggregation after addition of L-glutamine ([2]; MSO treated culture): increased toxic protein synthesis and aggregation
growth of cells after addition of L-GLN ([2]; cells not treated with MSO or treated with subinhibitory concentrations of MSO): no effect

CS(=N)(=O)CC[C@H](N)C(=O)O (stereo partly drawn) [MSO, L-methionine S-sulfoximine]
type of inhibition of glutamine synthetase (glutamine synthetase): irreversible inhibitor
time to climb a defined distance up a vial (motor function) [3]: require less time to climb the same distance
visible aggregate production (aggregation) [4]: inhibit aggregation
brain levels of glutamine [5]: 1.8 mmol/kg brain

CC(Cc1ccccc1)(NC(=O)CN)c1ccccc1 (stereo not shown) [Remacemide]
slowing of progression of Huntington's disease (Huntington's disease): neither drug resulted in any significant improvement

NCCSSCCN [cystamine]
tremors and survival ([6]; HD mutation mice): alleviate tremors and prolong life
levels of neuroprotective proteins ([6]; mouse, in vivo): increase the levels of certain neuroprotective proteins
